“Also recorded” adds a separate entry of the source.
How the values were obtained:
[1] = test system: IL-6; experiment: Cytokine ELISA, LPS-stimulated peritoneal macrophages (IL-6); format: cell-based, mouse; conditions: LPS 100 ng/mL 6 hours, pre-treatment 1.5 μM
Description: (§1) This was exemplified in the current study by the ability of SFN-CYS to inhibit lipopolysaccharide (LPS)-induced peritoneal macrophages and bone marrow-derived macrophages to produce tumor necrosis factor-α (TNF-α) and interlukin-6 (IL-6). TNF-α and IL-6 are two of the major inflammatory mediators that contribute to the pathogenesis of low-grade inflammation; a phenomenon which is commonly associated with the diabetic state. […] Pre-treatment with SFN-Cys inhibited the expression of LPS-induced TNF-α and IL-6 protein at a therapeutic dose of 1.5 μM (FIGS. 1A and 1B).
(§2) Thioglycollate-elicited mouse peritoneal macrophages were prepared from C57BL (8-10 weeks old) and cultured in RPMI 1640 with 10% (v/v) FCS Bone marrow-derived macrophages were generated in RPMI medium containing M-CSF (10 ng/mL) according to previously published procedure. For cytokine ELISA assay, cells were seeded at 5×10^5 in 12-well plates, whereas for mRNA expression, the cells were seeded at […]. LPS and used at a dose of 100 ng/mL. Similarly. SFN-Cys was used at a concentration of 1.5 umol/L.
(§3) For cytokine ELISA, supernatants from cultured macrophages were collected in response to treatment with SFN and SFN-Cys for 6 h. The total TNF-α and TL-6 were measured by enzyme-linked immunosorbent assay (ELISA) using kits (R&D system, USA) according to the manufacturer's protocols.

[2] = Pain threshold in diabetic rats (diabetic neuropathy); format: in vivo; conditions: 5 μmol/rat
Description: (§4) Therapeutic rational was considered for SFN-Cys effectiveness in the following pathological conditions: Sarcopenia-SFN-Cys increased muscle weight in diabetic mice, see FIGS. 4A and 4B; Cardiac fibrosis-SFN-Cys inhibits transforming growth factor beta (TGF-β) expression, see FIG. 4C; Erectile dysfunction-SFN-Cys increased endothelial nitric oxide activity and expression in corpus cavernosum.

[3] = test system: TNF-α; experiment: Cytokine ELISA, LPS-stimulated peritoneal macrophages (TNF-α); format: cell-based, mouse
Description: as §1, §2, §3

[4] = test system: wound fibroblasts (DF, CF-GP); experiment: Cell viability assay, H2O2 cytotoxicity in wound fibroblasts; format: cell-based, rat; conditions: 1.5 to 5 μM
Experimental: To determine if SFN-Cys is involved in cellular detoxification of oxidant load, wound fibroblasts derived from the granulation tissue of control and diabetic animals with H2O2 were measured for their abilities to survive acute oxidative stress in the presence or absence of SFN-Cys. […] Moreover, CF exposed for 72 hours to high glucose (25 mmole/L and palmitate 200 μmole/L, CF-GP) to mimic the diabetic state produced analogous results to those seen with DF as illustrated in FIG. 2A. Supplementing DF and CF-GP with SFN-Cys at a dose of 1.5 to 5 μM eliminated the reactive oxygen species difference between these cells and enhanced DF and CF-GP resistance to H2O2(FIG. 2A).
Control and diabetic fibroblasts were isolated from wounds inflicted on control Wistar rats (CF) or Goto kakazaki rats (GK), a model of non-obese type 2 diabetes. All information regarding the GK rats and the preparation and culturing of control (CF) and diabetic (DF) fibroblasts was described in detailed in previous publications, Bitar, M S, and Mulla, F. Am J Phyaiol. […]
The response of CF and DF to H2O2 cytotoxicity was measured by seeding the cells into 96-well plates at a density of 5×10^3 to 8×10^3 cells per well and were allowed to adhere overnight in 10% FCS-DMEM medium. […] Cell viability was measured using WST-1 (Dojindo, USA;) according to the manufacturer's instructions.

[5] = test system: TNF-α; experiment: Real-time PCR, LPS-induced TNF-α mRNA in peritoneal macrophages; format: cell-based, mouse; conditions: LPS 100 ng/mL, 1.5 umol/L, RT-PCR
Experimental: Additional tests were conducted to determine whether SFN-Cys also suppresses TNF-α and IL-6 expression at the mRNA level.
as §2
(§5) Total RNA from cells or frozen sponge implants was extracted using the Trizol reagent (Invitrogen), and the RNA integrity was verified by agarose gel electrophoresis. Approximately 1 μg of RNA was reverse transcribed (Superscript II Reverse Transcriptase Kit, Invitrogen) and amplified using the TaqMan Assay on Demand (Applied Biosystems) in a 25 μL reaction volume containing two unlabeled primers, a 6-carboxyfluorescien-labeled TaqMan MGB probe and the master mix. The amplified sequences were assessed using the ABI 7500 Prism Sequence Detection system machine. The results were expressed as mRNA levels normalized to 18S or GAPDH in each sample.

[6] = test system: transforming growth factor beta (TGF-β); experiment: TGF-β expression (cardiac fibrosis); format: in vivo
Description: as §4

[7] = test system: Vimentin-TGF-β-Slug signaling pathway; experiment: Vimentin-TGF-β-Slug signaling in diabetic wound biopsies; format: in vivo, rat; conditions: semi-chronic administration
Description: Although the molecular mechanism by which SFN-Cyst enhanced wound healing potential was not fully explored in this study, it is possible to involve the Vimentin-TGF-β-Slug signaling pathway. Vimentin is an intermediate filament protein that participates in several cellular processes essential for wound healing, including cell proliferation, adhesion, migration and cytoskeletal rearrangement. Moreover, vimentin also amplifies epithelial-mesenchymal-transition via enhancing TGF-β-Slug signaling. […] A similar reduction in TGF-β-Slug signaling level was also evident in this disease state (FIG. 3D).
as §5

[8] = Blood tests on plasma after 21 days of SFN-Cys diet; format: in vivo; conditions: mice, diet 7.5 mg/kg food, mean±SEM
Experimental: To strengthen this conclusion, extensive measurements were conducted on plasma levels of key parameters of kidney and liver toxicities in addition to the lipid and carbohydrate profiles.
For dietary treatment with SFN-Cys, the SFN-Cys was mixed with a powdered diet (7.5 mg of SFN-Cys per kg of food). The estimated dose delivered by this diet was about 1.0-1.5 mg/kg. The diet was stored at 4° C. and the feeders were refilled daily. Control animals received diet alone. Body weights were recorded twice a week and at the termination of the study, blood was drawn in EDTA-containing tubes, plasma was collected by centrifugation and stored at −80° C. until analysis.
Blood tests were performed on hemolysis free plasma samples obtained from animals receiving 21 days of a normal diet or a diet containing 7.5 mg/kg food of SFN-Cys using commercially available kits.

[9] = Muscle weight in diabetic mice (sarcopenia); format: in vivo
Description: as §4

Plasma Alanine aminotransferase [8]: 44.5 ± 17 IU/L | Plasma Alkaline phosphatase [8]: 27 ± 15 IU/L | Plasma Aspartate aminotransferase [8]: 172 ± 25 IU/L | Plasma Creatinine [8]: 8.87 ± 0.91 µmol/L | Plasma Free fatty acid [8]: 0.41 ± 0.14 mmol/L | Plasma Glucose [8]: 5.87 ± 0.90 mmol/L | Plasma Ketone bodies [8]: 0.079 ± 0.01 mmol/L | Plasma Total bilirubin [8]: 4.23 ± 0.48 µmol/L | Plasma Total cholesterol [8]: 2.15 ± 0.42 mmol/L | Plasma Triglyceride [8]: 1.15 ± 0.25 mmol/L
SMILES: C[S+]([O-])CCCCNC(=S)SCC(N)C(=O)O (centres unmarked) [SFN-Cys, Sulforaphane-Cysteine]
expression of LPS-induced IL-6 protein [1]: inhibited | pain threshold [2]: elevated | anti-inflammatory activity (overall, SFN-Cys compared with SFN) ([3]; LPS-stimulated macrophages, mouse model of type 2 diabetes): exhibited anti-inflammatory and antioxidant activities; also recorded: more potent than SFN | expression of LPS-induced TNF-α protein ([3]; peritoneal macrophages, LPS 100 ng/mL 6 hours, pre-treatment 1.5 μM, ELISA): inhibited | reactive oxygen species difference between DF/CF-GP and control fibroblasts [4]: eliminated | resistance to H2O2 (cell viability) ([4]; DF and CF-GP, H2O2 400 μmol/L 4 hours, WST-1): enhanced | LPS-induced TNF-α mRNA up-regulation [5]: significantly inhibited | TGF-β expression [6]: inhibits | deficit in Vimentin-TGF-β-Slug signaling [7]: ameliorated | muscle weight [9]: increased
